Results from patent publication US20250213526A1, “TRIPLE UPTAKE INHIBITOR FOR THE TREATMENT OF ATYPICAL DEPRESSION” (priority 2022, published 2025).
“Also recorded” adds a separate entry of the source.

How the values were obtained:
Type in all cases: in vivo, rat
male Sprague-Dawley rats = assay: Binge-like eating of chocolate; conditions: for chocolate intake vs VEH: 4 h pre-treatment, 1-hr session
Description: Methods. A new group of male Sprague-Dawley rats (n=8; initial weight 300-325 g) was used for the binge-like eating experiment. They were pair-housed under the same conditions described above, however, they were not food restricted, and in the home cage were allowed ad libitum access to food (laboratory chow) and water. Acquisition of the binge-like eating took place over the course of 12 exposure sessions. A 3-day, 1-hr habituation exposure to an empty feeding cage with a ceramic dish took place before chocolate exposure. With chocolate exposure, rats received chocolate (0.3 g fat, 0.57 g carbohydrate, and 0.073 g protein with a total of 5.34 kcal/g) on days 1, 2, 4, 6, 7, 9, 12, 14, 15, 18, 23, and 28. On exposure days, rats were placed in an empty feeding cage with a ceramic dish containing ground chocolate for 1 hr. Weight of chocolate was taken before and after each session to determine intake.
Drug Administration. Upon completion of the 12 acquisition sessions of binge-like eating rats continued to be exposed to chocolate sessions twice a week for 1-hr in empty feeding cages with a ceramic dish containing chocolate. One session was for maintenance of the binge-like behavior, and then the second was for drug treatment. These sessions took place randomly throughout the week with the maintenance session always occurring prior to the drug treatment session. Compound 1 was dissolved in 0.3% Tween 80 in dH2O. Vehicle (VEH), or doses of 5.0, 10.0, and 20.0 mg/kg were administered via oral gavage once a week for testing. A pre-treatment lead time of four hours was used. A within-subjects design was used in this study, with each rat receiving one treatment per week for a total of four weeks. Treatment conditions were selected randomly.
Data Analysis. Repeated measures ANOVA and planned comparisons were used to assess the effect of Compound 1 on binge-like eating of chocolate.

[1] = test system: adult male Sprague Dawley rats; assay: Progressive ratio (PROG)/Chow feeding choice task; conditions: for standard chow intake vs VEH / lever pressing vs VEH: 30-minute session; for chow intake vs VEH, high responders / lever pressing vs VEH, high responders: high responder group (n=15); for lever presses, low responders (chow-intake analysis, FIG. 15) / lever pressing vs VEH, low responders: low responder group (n=16); for lever presses, low responders (chow-intake analysis, FIG. 15): Dunnett's test
Experimental: The PROG/Chow feeding choice procedure was used as a test designed to evaluate the effort a rat is willing to make to eat a palatable food by pressing a lever instead of eating freely available standard food.
Methods. Thirty-one (n=31) adult male Sprague Dawley rats were used in this study. The animals were restricted to 85% of their free-feeding weight, with modest growth allowed throughout the study period. Animals were assessed using operant conditioning chambers. Animals were first introduced to the high carbohydrate pellets (“palatable food”) and trained to lever press using a continuous reinforcement schedule with a fixed ration of one (FR1=one active lever press trigger the delivery of the palatable food) for one week. After this, the rats were trained on the progressive ratio (progressively more lever pressures were needed to trigger the delivery of the palatable food) schedule alone for nine weeks at which point chow (“standard food”) was introduced (=PROG/Chow feeding choice procedure), and animals trained for another 5 weeks to acquire a steady baseline. Each session lasted 30 minutes and rats ran in the operant chambers once a day, five days a week (Monday-Friday). Vehicle (VEH), or Compound 1 doses of 5.0, 10.0, and 20.0 mg/kg were administered via oral gavage once a week (Thursday or Friday) after the training period. Treatment conditions were selected randomly. Lever presses and chow consumption (including spillage) were recorded after each operant session.
Statistical analyses. Repeated measures analysis of variance test (ANOVA) and planned comparisons were used to assess the data overall. Factorial ANOVA was used to assess group x treatment interaction. If significant interactions were found, planned comparisons (using the overall error term) were used to assess the groups individually. Dunnett's tests were also used to analyze differences between drug treatments and VEH. A p value of <0.05 was considered statistically significant for all analyses.

Male Long Evans Rats = assay: 5-choice serial reaction time task (5-CSRTT)
Description: The 5-choice serial reaction time task (5-CSRTT) is widely used to measure attentional performance and response control (motor impulsivity) in rodents. A strength of the test is its adaptability to task modification. Variations to stimulus duration and frequency of stimulus presentation, amongst others, have become commonly used to challenge performance in the context of attention and response control. The primary objective of these studies was to examine the effect of Compound 1 on attentional performance and on aspects of response control, defined as premature responses (PREM) and perseverative responses (PSV), measures of impulsive action, and compulsive action respectively. Two experimental manipulations were undertaken to differentially challenge performance. Specifically, (1) test Compound 1 (1, 3, 10 mg/kg) under standard test conditions of 0.75 s SD, 5 s ITI, 100 trials, and (2) test Compound 1 (1, 3 mg/kg) against a long ITI challenge. The long ITI challenge is designed to elevate PREM and PSV responses and so provide a means to examine the effect of both test articles on measures of impulsive and compulsive action.
• Dosage form: 0.3% Tween80 in 0.9% Saline • Pretreatment time: 180 minutes
• Dosage form: Compound 1 was suspended in 0.3% Tween80 in 0.9% Saline and sonicated. Drug was administered at a volume of 5 mL/kg, oral (PO) route. • Pretreatment time: 180 minutes • Doses tested: Phase 1: 1, 3, 10 mg/kg; Phase 2: 1, 3 mg/kg
Housing and Management of Test System: Following a one-week period of familiarization to the test facility, animals were placed on a restricted diet regimen, in which they were fed approximately 20 g of standard laboratory chow once per day (corresponding to ˜80% of normal food consumption) following the completion of study procedures (between 16:00 h and 18:00 h). Overall food intakes were therefore based on food earned during 5-choice training/testing and chow at the end of each study day. On days where no training/testing occurred, the daily allotted lab chow was increased to approximately 24 g per animal. Water was available ad-libitum except during 5-choice training/testing sessions. Animals were maintained on a 12 h/12 h light/dark cycle with all testing conducted during the animals' light cycle.
5-choice serial reaction time task: 5-choice operant chambers were housed in sound-insulated and ventilated enclosures. Chambers consisted of an aluminum enclosure (25×30 cm), containing a reward magazine attached to a food pellet dispenser and house light on one wall, and on the opposite wall an array of 5 square niches (2.5×2.5×2.5 cm) arranged on a curved panel and raised 2.5 cm from the grid floor. An LED was positioned at the rear of each niche. Each niche, and the reward magazine, also contained a photocell to detect head entry. Test chambers were controlled by Med PC software.
The 5-CSRTT schedule began with the illumination of the house light and delivery of a food pellet. A nose-poke into the magazine tray initiated the first trial which consisted of an inter-trial interval (ITI, 5 s) followed by the random illumination of one of the 5 lights for a fixed interval (stimulus duration, SD). If a nose-poke was registered in the illuminated niche before the end of either the SD, or a fixed interval after this period (limited hold, LH) a further pellet was dispensed and a Correct Trial registered. […] PSV responses were not punished by a TO.
Each session ran for either 100 trials or 60 min, depending on which session endpoint was achieved first. Animals were trained via a series of steps to final test conditions of 0.75 s SD, 5 s ITI, 5 s limited hold. Target performance was stable performance around a threshold of 80% correct ([correct/(correct+incorrect)]*100) and <20% omissions for at least a two week period. At this point drug testing began according to a repeated measures design with animals receiving treatment over repeated test sessions. […]

[2] = test system: adult male Sprague-Dawley rats; assay: Sleep/wake parameters, repeated measures; conditions: first 6 hours post-dosing, n=8
Experimental: Using a counter-balanced, repeated measures design, three doses of Compound 1 (1-10 mg/kg, p.o.) were tested for their effects on sleep/wake parameters in adult male Sprague-Dawley rats (n=8). The results were compared with the effects on caffeine (10 mg/kg).
Methods. Eight (n=8) adult male Sprague Dawley rats were used in this study. Each rat received Compound 1 at 3 doses (1, 3 and 10 mg/kg), vehicle (purified H2O-negative control) and caffeine (10 mg/kg—positive control). […] Sleep parameters (non-rapid eye movement sleep, NR; rapid eye movement sleep, REM) were recorded and the first 6 hours post-dosing records were analyzed.

[3] = test system: adult male Sprague Dawley rats; assay: Fixed ratio 1 (FR1) schedule probe
Description: A fixed ratio 1 (FR1) schedule was used, and this task is the most food dense and appetite dependent operant schedule, with high sensitivity to appetite-related manipulations such as pre-feeding and appetite suppressant drugs.
Methods. The same adult male Sprague Dawley rats (n=31) as in Example 5 were used in this study. Animals trained once daily on the PROG/Chow feeding choice procedure from Monday through Thursday. On Friday, the testing day, the animals were switched from the PROG/Chow feeding choice procedure to FR1 with no prior training. Each operant session lasted 30 minutes and lever presses were recorded at the end of the run. Drug treatment and the FR1 probe occurred on the Friday after two weeks of washout period from Example 5. A dose of 20.0 mg/kg of Compound 1 or vehicle was administered via oral gavage on the testing day. Only the highest dose was tested in this study because, in Example 5, it produced the most robust decrease in lever pressing and chow intake compared to VEH. Treatment conditions were assigned randomly. Treatment group difference was assessed by unpaired t-test. A p value of <0.05 was considered statistically significant.

[4] = 10.0 mg/kg oral gavage, n=31, p<0.001
[5] = 20.0 mg/kg oral gavage, n=31, p<0.001
[6] = standard conditions 0.75 s SD, 5 s ITI, 100 trials, 1, 3, 10 mg/kg PO, P<0.01
[7] = standard conditions, 1, 3, 10 mg/kg PO

CCC[C@]1(C(=O)c2ccc(Cl)c(Cl)c2)CCNC1 [Compound 1, (3,4-dichloro-phenyl)-((S)-3-propyl-pyrrolidin-3-yl)-methanone]
chocolate intake vs VEH (male Sprague-Dawley rats; 5.0 mg/kg oral gavage, n=8, n.s.): did not significantly suppress chocolate intake | chocolate intake vs VEH (male Sprague-Dawley rats; 10.0 mg/kg oral gavage, n=8, p<0.001): significant reductions in chocolate intake | chocolate intake vs VEH (male Sprague-Dawley rats; 20.0 mg/kg oral gavage, n=8, p<0.001): significant reductions in chocolate intake | binge eating in animal model (FIGS. 8 and 9) (male Sprague-Dawley rats; rat, in vivo): effective in controlling binge eating | standard chow intake vs VEH ([1]; 5.0 mg/kg oral gavage, n=31, p<0.001): significant decreases | lever pressing vs VEH ([1]; 5.0 mg/kg oral gavage, n=31, p=n.s.): No significant difference | lever pressing vs VEH [1, 4]: significant decreases in lever pressing | standard chow intake vs VEH [1, 4]: significant decreases | lever pressing vs VEH [1, 5]: significant decreases in lever pressing | standard chow intake vs VEH [1, 5]: significant decreases | overall conclusion on appetite ([1]; 5.0-20.0 mg/kg oral gavage): appetite suppressant effects | chow intake vs VEH, high responders ([1]; 5.0 mg/kg, p<0.010): significant decreases in chow intake | lever pressing vs VEH, high responders ([1]; 5.0 mg/kg, p=n.s.): no significant difference | chow intake vs VEH, high responders ([1]; 10.0 mg/kg, p<0.001): significant decreases in chow intake | lever pressing vs VEH, high responders ([1]; 10.0 mg/kg, p<0.001): significant decreases in lever pressing | chow intake vs VEH, high responders ([1]; 20.0 mg/kg, p<0.001): significant decreases in chow intake | lever pressing vs VEH, high responders ([1]; 20.0 mg/kg, p<0.001): significant decreases in lever pressing | lever presses, low responders (chow-intake analysis, FIG. 15) ([1]; 5.0 mg/kg, p<0.001): significant decreases in lever presses | lever pressing vs VEH, low responders ([1]; 5.0 mg/kg, p=n.s.): no significant differences | lever presses, low responders (chow-intake analysis, FIG. 15) ([1]; 10.0 mg/kg, p<0.001): significant decreases in lever presses | lever pressing vs VEH, low responders ([1]; 10.0 mg/kg, p=n.s.): no significant differences | lever presses, low responders (chow-intake analysis, FIG. 15) ([1]; 20.0 mg/kg, p<0.001): significant decreases in lever presses | lever pressing vs VEH, low responders ([1]; 20.0 mg/kg, p=n.s.): no significant differences | PREM responses in low/high impulsive subgroups (Male Long Evans Rats; 10 s ITI schedule, 1 and 3 mg/kg PO, LI and HI subgroups, P<0.01): main effects of treatment and subgroup x treatment interactions | PSV responses in low/high impulsive subgroups (Male Long Evans Rats; 10 s ITI schedule, 1 and 3 mg/kg PO, LI and HI subgroups, treatment P=0.02, interaction P<0.01): main effects of treatment and subgroup x treatment interactions | any task measure (accuracy % correct, % hit, PREM/PSV responses) (Male Long Evans Rats; 10 s ITI, 0.3 s SD schedule, 1 and 3 mg/kg PO, all N=21 rats, F2,40≤2.5, NS): no main effects of treatment on any measure | impulsive behaviors in rats (Male Long Evans Rats; FIGS. 10A and 10B): reduces impulsive behaviors | perseverative (PSV) responses relative to vehicle (Male Long Evans Rats; [6]): dose-related decrease; also recorded: dose-dependently reduced | premature (PREM) responses relative to vehicle (Male Long Evans Rats; [6]): dose-related decrease; also recorded: dose-dependently reduced | trial number (Male Long Evans Rats; standard conditions, 10 mg/kg PO): decreased | accuracy (Male Long Evans Rats; [7]): no main effects of treatment; also recorded: no adverse effects | speed of responding (Male Long Evans Rats; [7]): no adverse effects | REM sleep ([2]; 3 mg/kg p.o.): reduced REM sleep, but to a lesser extent | wake ([2]; 3 mg/kg p.o.): significantly increased wake | REM sleep ([2]; 10 mg/kg p.o.): complete suppression of REM sleep | wake ([2]; 10 mg/kg p.o.): wake-promoting effects | rats that pressed the lever but refrained from eating some of the pellets ([3]; 20.0 mg/kg oral gavage): 6 of the 16 | lever pressing vs VEH in FR1 probe ([3]; 20.0 mg/kg oral gavage, 30-minute session, unpaired t-test t=9.74, p<0.001): significant decrease in lever pressing | uneaten pellets left in the food dishes of these animals ([3]; 20.0 mg/kg, after the 30-minute operant session): 5-10 pellets
